Series [1] concerns the target T1, Rat2 fibroblasts stably transformed with v-Src/Hu Lck fusion gene (Homo sapiens, UniProt P06239, cells depend on it, form not given).
T1 construct: Candidates are e.g. Schmidt-Ruppin A (P00524) or Prague C (P00526); The human Lck catalytic domain stands in place of the v-Src catalytic domain
Briefly: Anchorage independent Lck-transformed fibroblast proliferation assay. In kind it is cell-based, rat. As for the experimental part:
Anchorage Independent Lck-Transformed Fibroblast Proliferation Assay
Rat2 fibroblasts stably transformed with a plasmid containing a CMV promotor controlled v-Src/Hu Lck fusion gene in which the catalytic domain of human Lck was inserted in place of the v-Src catalytic domain in the v-Src gene are used for the measurement of src dependent suspension growth. Ultra-low cluster plates (Costar # 3474) are seeded with 10,000 cells per well on Day 1. Compound is added in serial two-fold dilutions from 10 micromolar to 0.009 micromolar on Day 2 and MTS reagent (Promega) is added on Day 5 (100 microliters of MTS/medium mix+100 microliters of medium already on the cells and the absorbance is measured at 490 nm. The results are analyzed as follows to yield an IC50 for proliferation (micromolar units) as follow: % inhibition=(Abs490 nm sample−blank)/(Abs490 nm no cmpd control−blank)×100%. The results obtained for representative compounds of this invention are listed in Table 2. Multiple entries for a given compound indicate that it was tested multiple times.

Series [2] concerns Rat2 fibroblasts stably transformed with v-Src/Hu c-Src fusion gene. In words: Anchorage independent Src-transformed fibroblast proliferation assay. In kind it is cell-based, rat. As for the experimental part: Anchorage Independent Src-Transformed Fibroblast Proliferation Assay Rat2 fibroblasts stably transformed with a plasmid containing a CMV promotor controlled v-Src/Hu c-Src fusion gene in which the catalytic domain of human c-Src was inserted in place of the v-Src catalytic domain in the v-Src gene are used for the measurement of src dependent suspension growth. […] Multiple entries for a given compound indicate that it was tested multiple times.

In series [3] the target is T2, Recombinant human Src enzyme (Homo sapiens, UniProt P12931).
T2 construct: purchased PanVera P3044
T2 sequence (P12931 whole entry): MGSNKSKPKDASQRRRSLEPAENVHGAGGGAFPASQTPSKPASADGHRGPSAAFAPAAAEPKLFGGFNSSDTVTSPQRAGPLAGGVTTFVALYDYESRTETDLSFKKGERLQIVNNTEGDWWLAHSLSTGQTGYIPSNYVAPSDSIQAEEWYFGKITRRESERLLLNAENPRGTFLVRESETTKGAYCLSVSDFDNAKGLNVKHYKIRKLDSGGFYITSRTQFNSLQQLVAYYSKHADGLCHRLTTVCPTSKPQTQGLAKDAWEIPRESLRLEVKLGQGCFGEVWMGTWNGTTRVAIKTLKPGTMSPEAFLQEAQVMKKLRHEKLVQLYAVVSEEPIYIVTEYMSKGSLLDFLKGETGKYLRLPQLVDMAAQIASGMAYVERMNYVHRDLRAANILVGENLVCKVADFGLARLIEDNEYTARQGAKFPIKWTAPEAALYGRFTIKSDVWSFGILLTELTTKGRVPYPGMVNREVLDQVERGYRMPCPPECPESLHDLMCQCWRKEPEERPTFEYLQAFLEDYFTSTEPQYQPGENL
Briefly: Src kinase assay (LANCE FRET). The conditions noted are these: Table 3; 100 μM ATP, biotinylated Cdk1 peptide substrate. In kind it is biochemical. As for the experimental part:
Recombinant human Src enzyme was obtained from PanVera (P3044). […] Homogeneous fluorescence resonance energy transfer kinase assays were performed using the europium/APC detection format (LANCE, Perkin Elmer). Src enzyme (10 ng) was mixed with biotinylated peptide (final concentration 2 μM), 50 mM Hepes (pH 7.5), 10 mM MgCl2, 20 μg/ml BSA, 0.001% Brij-35 (sigma), 100 μM ATP, 1% DMSO. The kinase reaction was incubated for 70 min at 37° C. The reaction was stopped with EDTA at a final concentration of 30 mM EDTA/25 mM Hepes (pH 7.5)/10 μg/ml BSA. The mixture was combined with Eu-labeled anti-phosphotyrosine antibody PT66 (Perkin Elmer, AD0068) and Streptavidin Surelight-APC (Perkin Elmer, CR130-100) in 50 mM Hepes (pH 7.5)/20 μg/ml BSA, and incubated for 30 min according to manufacturer's specifications. […] Multiple entries for a given compound indicate that it was tested multiple times.
(TR-FRET usually uses a lanthanide donor and a delayed reading to cut background.)

Where [4] appears, read: Table 3, read-out: Lck Cells IC50.
[5] abbreviates: Rattus norvegicus, Rat2, Table 3, read-out: Src Cells IC50 μM or % inhib at 10 μM (IC50 values).
The mark [6] stands for this setting: Table 3, read-out: Src Cells IC50 μM or % inhib at 10 μM (IC50 values).
Where [7] appears, read: Table 2, suspension growth, MTS readout Day 5, read-out: Lck cells IC50.
[8] abbreviates: Rattus norvegicus, Rat2, 120 h, Table 1, suspension growth, MTS readout Day 5, read-out: Src cells IC50.
The mark [9] stands for this setting: Table 1, suspension growth, MTS readout Day 5, read-out: Src cells IC50.

Several values for one entry are separate records, joined by “and”; a condition that tells them apart may be missing. Equal values may be shown once. Read-outs that look alike come from different tables or passages of the source. Bounds are passed on as bounds.

T1 sequence (P06239 whole entry, change not shown, the tested form may be a part): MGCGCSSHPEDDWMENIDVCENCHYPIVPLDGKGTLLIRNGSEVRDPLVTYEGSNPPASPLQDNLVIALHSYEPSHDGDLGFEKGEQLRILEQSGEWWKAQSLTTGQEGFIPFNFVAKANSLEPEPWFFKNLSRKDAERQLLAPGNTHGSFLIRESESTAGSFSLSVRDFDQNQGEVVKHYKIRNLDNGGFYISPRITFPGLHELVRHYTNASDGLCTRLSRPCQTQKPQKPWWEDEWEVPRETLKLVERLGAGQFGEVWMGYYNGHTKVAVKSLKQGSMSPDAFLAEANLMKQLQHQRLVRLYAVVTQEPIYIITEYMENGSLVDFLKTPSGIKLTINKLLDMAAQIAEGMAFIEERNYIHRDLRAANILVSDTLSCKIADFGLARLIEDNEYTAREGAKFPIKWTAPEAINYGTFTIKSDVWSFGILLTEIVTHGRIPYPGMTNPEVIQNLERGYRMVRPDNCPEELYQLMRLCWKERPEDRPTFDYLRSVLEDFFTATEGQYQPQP

As to `COc1cc(Nc2c(C#N)cnc3cc(-c4ccc(CN5CCS(=O)(=O)CC5)cc4)sc23)c(Cl)cc1Cl` [Example 111, 7-[(2,4-dichloro-5-methoxyphenyl)amino]-2-{4-[(1,1-dioxidothiomorpholin-4-yl)methyl]phenyl}thieno[3,2-b]pyridine-6-carbonitrile], in series [1] (setting [4]), the GI50 is 283 nM and 428 nM. In addition, the IC50 was found to be 0.572 µM in series [2] (setting [5]), 0.411 µM in series [2] (setting [6]) and 16 nM in series [3].

For the compound `COc1cc(Nc2c(C#N)cnc3cc(-c4ccc(CN(C)CCN(C)C)cc4)sc23)c(Cl)cc1Cl` [Example 72, 7-[(2,4-dichloro-5-methoxyphenyl)amino]-2-(4-{[[2-(dimethylamino)ethyl](methyl)amino]methyl}phenyl)thieno[3,2-b]pyridine-6-carbonitrile], the GI50 in series [1] (setting [4]) was 120 nM and 77 nM. Further, the IC50 in series [2] (setting [5]) is 1.3 µM; in series [2] (setting [6]) it was 0.7 µM; in series [3], 9.4 nM and 15 nM.

Turning to `COc1cc(Nc2c(C#N)cnc3cc(-c4ccc(CN5CCNCC5)cc4)sc23)c(Cl)cc1Cl` [Example 95, 7-[(2,4-dichloro-5-methoxyphenyl)amino]-2-[4-(piperazin-1-ylmethyl)phenyl]thieno[3,2-b]pyridine-6-carbonitrile], the melting point fell in the range of 218 to 220 °C. Besides, the GI50 in series [1] (setting [4]) was 193 nM and 133 nM and 168 nM. Further, the IC50 in series [3] was 8.4 nM and 8.3 nM and 6.9 nM and 5.3 nM.

In the case of `COc1cc(Nc2c(C#N)cnc3cc(-c4ccc(CN5CCN(S(C)(=O)=O)CC5)cc4)sc23)c(Cl)cc1Cl` [Example 122, 7-[(2,4-dichloro-5-methoxyphenyl)amino]-2-(4-{[4-(methylsulfonyl)piperazin-1-yl]methyl}phenyl)thieno[3,2-b]pyridine-6-carbonitrile], the melting point lay within 211 to 213 °C. In series [1] (setting [4]), the GI50 is 897 nM and 1080 nM and 1560 nM. For the same compound, the 50% inhibitory concentration (IC50) in series [3] is 18 nM and 23 nM.

Compound `COc1cc(Nc2c(C#N)cnc3cc(-c4ccc(CN5CCN(CCO)CC5)cc4)sc23)c(Cl)cc1Cl` [Example 17, 7-[(2,4-Dichloro-5-methoxyphenyl)amino]-2-(4-{[4-(2-hydroxyethyl)piperazin-1-yl]methyl}phenyl)thieno[3,2-b]pyridine-6-carbonitrile] returned a melting point of 189 to 190 °C. Also, in series [1] (setting [7]), the GI50 was 140 nM. For the same compound, the half-inhibitory concentration (IC50) in series [2] (setting [8]) amounted to 0.37 µM.

Take `COc1cc(Nc2c(C#N)cnc3cc(-c4ccc(CN5CCN(c6ccccn6)CC5)cc4)sc23)c(Cl)cc1Cl` [Example 112, 7-[(2,4-dichloro-5-methoxyphenyl)amino]-2-{4-[(4-pyridin-2-ylpiperazin-1-yl)methyl]phenyl}thieno[3,2-b]pyridine-6-carbonitrile]: the melting point was 245 to 247 °C. For the same compound, in series [1] (setting [4]), the GI50 was greater than 10000 nM. Besides, the concentration for half-maximal inhibition (IC50) in series [2] (setting [5]) is greater than 10 µM. The IC50 in series [2] (setting [6]) came out at 5.78 µM.

Turning to `CCN(CC)Cc1ccc(-c2cc3ncc(C#N)c(Nc4cc(OC)c(Cl)cc4Cl)c3s2)cc1` [Example 106, 7-[(2,4-dichloro-5-methoxyphenyl)amino]-2-{4-[(diethylamino)methyl]phenyl}thieno[3,2-b]pyridine-6-carbonitrile], the melting point lay within 160 to 162 °C. For the same compound, the GI50 in series [1] (setting [4]) is 103 nM and 95 nM and 58 nM and 71 nM. In addition, the half-inhibitory concentration (IC50) in series [3] is 10 nM and 6.6 nM.

Compound `COc1cc(Nc2c(C#N)cnc3cc(-c4ccc(C5OCCO5)s4)sc23)c(Cl)cc1Cl` [Example 77, 7-[(2,4-dichloro-5-methoxyphenyl)amino]-2-[5-(1,3-dioxolan-2-yl)thien-2-yl]thieno[3,2-b]pyridine-6-carbonitrile] registered a melting point of 213 to 217 °C. In series [1] (setting [4]), the GI50 was 1900 nM and 1700 nM. In series [2] (setting [5]), the IC50 amounted to 2.4 µM. Further, in series [2] (setting [6]), the 50% inhibitory concentration (IC50) came to 1.5 µM.

Regarding `CCN(CC)Cc1ccc(-c2cc3ncc(C#N)c(Nc4cc(OC)c(Cl)cc4Cl)c3s2)nc1` [Example 133, 7-[(2,4-dichloro-5-methoxyphenyl)amino]-2-{5-[(diethylamino)methyl]pyridin-2-yl}thieno[3,2-b]pyridine-6-carbonitrile], the melting point was 192 to 193 °C. For the same compound, the GI50 in series [1] (setting [4]) is 82 nM and 97 nM. For the same compound, in series [2] (setting [5]), the IC50 came out at 0.436 µM. The half-inhibitory concentration (IC50) in series [2] (setting [6]) came to 0.289 µM.

The compound `COc1cc(Nc2c(C#N)cnc3cc(Br)sc23)c(Cl)cc1Cl` [Example 3, 2-Bromo-7-[(2,4-dichloro-5-methoxyphenyl)amino]-thieno[3,2-b]pyridine-6-carbonitrile] registered a melting point of 228 to 229 °C. The GI50 in series [1] (setting [7]) came out at 32000 nM. The IC50 in series [2] (setting [8]) was 37 µM.

Regarding `COc1cc(Nc2c(C#N)cnc3cc(/C=C/n4nccn4)sc23)c(Cl)cc1Cl` [Example 66, 7-[(2,4-Dichloro-5-methoxyphenyl)amino]-2-[(E)-2-(2H-1,2,3-triazol-2-yl)vinyl]thieno[3,2-b]pyridine-6-carbonitrile], the melting point lay within 315 to 316 °C. In addition, in series [1] (setting [4]), the GI50 was greater than 10000 nM. The inhibition at 10 µM in series [2] (Rattus norvegicus, Rat2, Table 3, at 10 μM, read-out: Src Cells IC50 μM or % inhib at 10 μM (% values)) was determined as 26%. Moreover, in series [2] (Table 3, at 10 μM), the “Src Cells IC50 μM or % inhib at 10 μM (% values)” value was 26%, 26%.

For the compound `COc1cc(Nc2c(C#N)cnc3cc(-c4ccc(CNCc5ccncc5)cc4)sc23)c(Cl)cc1Cl` [Example 89, 7-[(2,4-dichloro-5-methoxyphenyl)amino]-2-(4-{[(pyridin-4-ylmethyl)amino]methyl}phenyl)thieno[3,2-b]pyridine-6-carbonitrile], the melting point was 128 to 130 °C. For the same compound, the GI50 in series [1] (setting [4]) is 1000 nM and 1060 nM. In addition, the 50% inhibitory concentration (IC50) in series [2] (setting [5]) came out at 1.5 µM. In series [2] (setting [6]), the IC50 turned out to be 1.21 µM.

For `COc1cc(Nc2c(C#N)cnc3cc(-c4ccc(C5OCCO5)o4)sc23)c(Cl)cc1Cl` [Example 68, 7-[(2,4-dichloro-5-methoxyphenyl)amino]-2-[5-(1,3-dioxolan-2-yl)-2-furyl]thieno[3,2-b]pyridine-6-carbonitrile], the melting point was in the range of 187 to 189 °C. Besides, the GI50 in series [1] (setting [4]) was 2800 nM and 3000 nM. Moreover, the IC50 in series [2] (setting [5]) came to 6.1 µM. Besides, the 50% inhibitory concentration (IC50) in series [2] (setting [6]) came to 6 µM.

`COc1cc(Nc2c(C#N)cnc3cc(-c4ccc(CN5CCN(C)CC5)o4)sc23)c(Cl)cc1Cl` [Example 69, 7-[(2,4-dichloro-5-methoxyphenyl)amino]-2-{5-[(4-methylpiperazin-1-yl)methyl]-2-furyl}thieno[3,2-b]pyridine-6-carbonitrile]: the melting point is 215 to 217 °C. Besides, the GI50 in series [1] (setting [4]) was 1900 nM and 2200 nM. For the same compound, the IC50 in series [2] (setting [5]) came out at 2.8 µM. In addition, the IC50 in series [2] (setting [6]) amounted to 3.4 µM.

In turn, `COc1cc(Nc2c(C#N)cnc3cc(-c4ccc(N5CCOCC5)nc4)sc23)c(Cl)cc1Cl` [Example 109, 7-[(2,4-dichloro-5-methoxyphenyl)amino]-2-(6-morpholin-4-ylpyridin-3-yl)thieno[3,2-b]pyridine-6-carbonitrile] showed a melting point of 225 to 227 °C. In series [1] (setting [4]), the GI50 was found to be 4500 nM. Besides, the IC50 in series [2] (setting [5]) is greater than 10 µM.

The compound `COc1cc(Nc2c(C#N)cnc3cc(-c4ccc(CN(C)C)cc4)sc23)cc(OC)c1OC` [Example 61, 2-{4-[(Dimethylamino)methyl]phenyl}-7-[(3,4,5-trimethoxyphenyl)amino]thieno[3,2-b]pyridine-6-carbonitrile] registered a melting point of 199 to 201 °C. Further, the GI50 in series [1] (setting [7]) is 17 nM and 15 nM and 14 nM. The IC50 in series [2] (setting [8]) stood at 0.217 µM. In series [2] (setting [9]), the half-maximal inhibitory concentration (IC50) worked out at 0.279 µM.

In turn, `COc1cc(Nc2c(C#N)cnc3cc(-c4cnc(CN5CCN(C)CC5)n4C)sc23)c(Cl)cc1Cl` [Example 59, 7-[(2,4-Dichloro-5-methoxyphenyl)amino]-2-{1-methyl-2-[(4-methylpiperazin-1-yl)methyl]-1H-imidazol-5-yl}thieno[3,2-b]pyridine-6-carbonitrile] returned a melting point of 234 to 235 °C. Also, the GI50 in series [1] (setting [7]) is 270 nM and 320 nM. In addition, the IC50 in series [2] (setting [8]) worked out at 1.21 µM. Also, in series [2] (setting [9]), the IC50 was found to be 2.29 µM.

One may read the IC50 as the point on the concentration scale where inhibition reaches its midpoint. For orientation: melting point means the temperature of the solid-liquid transition.

Values taken from patent US7276519B2, “Thieno[3,2-b]pyridine-6-carbonitriles and thieno[2,3-b]pyridine-5-carbonitriles as protein kinase inhibitors” (Wyeth, priority 2002, dated 2007).
